Here are results for 36 molecules from ChEMBL document CHEMBL1133626, “GRid-INdependent descriptors (GRIND): a novel class of alignment-independent three-dimensional molecular descriptors” (J Med Chem, 2000).

Experiment [1] deals with T1, Corticosteroid-binding globulin (Homo sapiens) (UniProt P08185).
T1 sequence (whole entry): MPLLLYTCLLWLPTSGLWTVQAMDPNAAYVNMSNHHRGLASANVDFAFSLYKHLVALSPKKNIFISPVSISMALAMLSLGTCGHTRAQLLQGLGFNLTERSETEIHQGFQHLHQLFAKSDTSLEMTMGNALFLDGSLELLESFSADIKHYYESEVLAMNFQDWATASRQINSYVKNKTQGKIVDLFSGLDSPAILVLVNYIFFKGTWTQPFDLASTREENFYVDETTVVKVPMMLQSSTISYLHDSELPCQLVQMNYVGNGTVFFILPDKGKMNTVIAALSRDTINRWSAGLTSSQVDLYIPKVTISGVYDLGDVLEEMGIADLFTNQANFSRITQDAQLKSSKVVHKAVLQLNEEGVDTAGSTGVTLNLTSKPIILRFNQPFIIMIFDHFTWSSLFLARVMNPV
As to the kind of experiment: (§1) Binding affinity to the corticosteroid-binding globulin (CBG) receptor.

Experiment [2] can be described thus: Binding affinity of the Corticosteroid-Binding Globulin Receptor with androstenediol.
A short description of experiment [3]: Kinetic inhibition constant was evaluated by measuring the inhibition of the glycogen phosphorylase (GP).
Experiment [4] is described as follows: Binding affinity of the Corticosteroid-Binding Globulin Receptor with androstanediol.
A short description of experiment [5]: as §1.
Experiment [6] is described as follows: Binding affinity of the Corticosteroid-Binding Globulin Receptor with corticosterone.
A short description of experiment [7]: Binding affinity of the Corticosteroid-Binding Globulin Receptor with dehydroepiandrosterone.
The target of experiment [8] is 5-hydroxytryptamine receptor 2A (Rattus norvegicus, UniProt P14842). As to the kind of experiment: Kinetic inhibition constant evaluated by measuring serotonergic activity.
Experiment [9] in a line: Binding affinity of the Corticosteroid-Binding Globulin Receptor with deoxy-corticosterone.
Experiment [10] deals with T1, Corticosteroid-binding globulin (Homo sapiens).
Experiment [11] can be described thus: Binding affinity of the Corticosteroid-Binding Globulin Receptor with cortisol.
The nature of experiment [12]: Binding affinity of the Corticosteroid-Binding Globulin Receptor with androstenedione.
The nature of experiment [13]: Binding affinity of the Corticosteroid-Binding Globulin Receptor with androsterone.

One may read the pKi as the Ki on a negative log10 scale, so that one unit is a factor of ten. Higher therefore signals a small Ki. By Ki is commonly meant a measure of affinity in units of concentration, obtained from inhibition or displacement. Read a low Ki as tighter binding.

Chain of 5-hydroxytryptamine receptor 2A (P14842 whole entry): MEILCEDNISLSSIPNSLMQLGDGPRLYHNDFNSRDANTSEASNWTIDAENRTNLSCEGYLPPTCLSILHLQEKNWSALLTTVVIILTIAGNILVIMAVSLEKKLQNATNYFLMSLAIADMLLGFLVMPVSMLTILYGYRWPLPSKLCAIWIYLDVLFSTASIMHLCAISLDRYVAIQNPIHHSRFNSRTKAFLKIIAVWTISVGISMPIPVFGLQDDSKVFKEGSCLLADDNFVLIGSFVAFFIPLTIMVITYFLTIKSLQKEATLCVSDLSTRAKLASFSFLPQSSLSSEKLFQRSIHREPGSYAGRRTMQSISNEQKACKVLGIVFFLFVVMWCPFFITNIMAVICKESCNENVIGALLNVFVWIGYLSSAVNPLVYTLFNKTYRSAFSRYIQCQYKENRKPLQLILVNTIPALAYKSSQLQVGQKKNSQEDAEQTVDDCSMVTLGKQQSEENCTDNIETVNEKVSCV

As for `CC(=O)OCC(=O)[C@@]1(O)CC[C@H]2[C@@H]3CCC4=CC(=O)CC[C@]4(C)[C@H]3[C@@H](O)C[C@@]21C`, in experiment [1], the Log K was determined as 7.55.

In experiment [1], `C[C@]12C[C@H](O)[C@H]3[C@@H](CCC4=CC(=O)CC[C@@]43C)[C@@H]1CC[C@@H]2C(=O)CO` gave a Log K of 7.88.

In experiment [2], `NC(=O)C1OC(CO)C(O)C(O)C1O` (stereo in doubt; 3) displayed a Log K of 5. In [3], this molecule came in with a negative logarithm of the Ki (pKi) of 3.36.

Take `NC(=O)C1OC(CO)C(O)C(O)C1O` (stereo in doubt; 2): the Log K in experiment [4] came out at 5. In experiment [3], this molecule gave a pKi of 3.43.

For the molecule `C[C@@H]1C[C@@]2(C)C(=CC1=O)CC[C@H]1[C@@H]3CC[C@](O)(C(=O)CO)[C@@]3(C)C[C@H](O)[C@@]12F`, in [1], the Log K was 5.8.

For `C[C@]12CCC(=O)C=C1CC[C@@H]1[C@@H]2CC[C@@]2(C)[C@H]1CC[C@]2(O)C(=O)CO`, in [5], the Log K came out at 7.88.

In the case of `NC(=O)N[C@H]1O[C@H](CO)[C@@H](O)[C@H](O)[C@H]1O`, the Log K in experiment [6] was determined as 7.88. In experiment [3], the pKi is 3.85.

In turn, `C[C@]12CCC(=O)C=C1CC[C@@H]1[C@@H]2CC[C@]2(C)C(=O)CC[C@@H]12` gave a Log K in experiment [1] of 5.76.

Molecule `NN1C(=O)N[C@@]2(O[C@@H](CO)[C@@H](O)[C@H](O)[C@@H]2O)C1=O` gave a Log K in experiment [7] of 5. In addition, the negative-log Ki (pKi) in experiment [3] was found to be 3.84.

In turn, `O=C1C(CCN2CCC(c3noc4cc(F)ccc34)CC2)CC2=CC=CC12` (centres undefined) had a Ki in experiment [8] of 1.74 nM.

In the case of `O=C1CNC(=O)[C@@]2(N1)O[C@@H](CO)[C@@H](O)[C@H](O)[C@@H]2O`, the negative-log Ki (pKi) in experiment [3] was found to be 4.22. In experiment [9], the Log K was found to be 7.65.

Turning to `C[C@]12C[C@@H](O)[C@H]3[C@@H](CCC4=CC(=O)CC[C@@]43C)[C@@H]1CC[C@@H]2C(=O)CO`, the Log K in experiment [5] came out at 6.78.

On to `O=C(c1ccc(F)cc1)C1CCN(CCC2CC3=CC=CC3C2=O)CC1` (centres undefined), for which the Ki in experiment [8] is 7.08 nM.

In the case of `CC(=O)[C@H]1CC[C@H]2[C@@H]3CCC4=CC(=O)CC[C@@H]4[C@H]3CC[C@]12C`, the Log K in experiment [1] came to 7.12.

In [1], `C[C@]12CC[C@H]3[C@@H](CCC4=CC(=O)CC[C@@]43C)[C@@H]1CC[C@@H]2C(=O)CO` gave a Log K of 7.65.

In the case of `C[C@]12CCC(=O)C=C1CC[C@@H]1[C@@H]2[C@@H](O)C[C@@]2(C)[C@H]1CC[C@]2(O)C(=O)CO`, the Log K in experiment [1] amounted to 7.88.

Molecule `CC(=O)[C@H]1CC[C@H]2[C@@H]3CCC4=CC(=O)CC[C@]4(C)[C@H]3CC[C@]12C` yielded a Log Ki in experiment [10] of 7.38 mM.

For the molecule `O=C(CCCN1CCN(CCC2CC3=CC=CC3C2=O)CC1)c1ccc(F)cc1` (centres undefined), the Ki in [8] is 42.7 nM.

The molecule `C[C@]12CC[C@@H]3c4ccc(O)cc4CC[C@H]3[C@@H]1C[C@@H](O)[C@@H]2O` had a Log K in experiment [1] of 5.

The molecule `C[C@]12CCC(=O)C=C1CC[C@@H]1[C@@H]2C(=O)C[C@@]2(C)[C@H]1CC[C@]2(O)C(=O)CO` had a Log K in experiment [1] of 6.89.

In experiment [1], `C[C@]12CC[C@H]3[C@@H](CCC4=CC(=O)CC[C@@H]43)[C@@H]1CC[C@@H]2O` had a Log K of 7.2.

As to `C[C@]12CC[C@H](O)C[C@@H]1CC[C@@H]1[C@@H]2CC[C@]2(C)[C@@H](O)CC[C@@H]12`, the Log K in experiment [1] was found to be 5.

For `CC(=O)[C@H]1CC[C@H]2[C@@H]3CC=C4C[C@@H](O)CC[C@]4(C)[C@H]3CC[C@]12C`, the Log K in experiment [1] came to 5.25.

`C[C@]12CC[C@H](O)CC1=CC[C@@H]1[C@@H]2CC[C@]2(C)C(=O)CC[C@@H]12` gave a Log K in experiment [1] of 5.

Regarding `CC(=O)[C@@]1(O)CC[C@H]2[C@@H]3CCC4=CC(=O)CC[C@]4(C)[C@H]3CC[C@@]21C`, in experiment [1], the Log K was determined as 7.74.

In experiment [5], `C[C@]12C=CC(=O)C=C1CC[C@@H]1[C@@H]2[C@@H](O)C[C@@]2(C)[C@H]1CC[C@]2(O)C(=O)CO` displayed a Log K of 6.72.

Consider `CC(=O)[C@@]1(O)CC[C@H]2[C@@H]3CC[C@@H]4C[C@H](O)CC[C@]4(C)[C@H]3CC[C@@]21C`, for which the Log K in experiment [1] worked out at 5.

For the molecule `CC(=O)C1[C@H](C)CC2C3CC=C4CC(=O)CCC4(C)C3CCC21C` (some centres undefined), the Log K in experiment [1] turned out to be 6.25.

On to `COC(=O)N[C@]1(C(N)=O)O[C@H](CO)[C@@H](O)[C@H](O)[C@H]1O`, for which the Log K in experiment [11] was determined as 7.88. Also, the negative logarithm of the Ki (pKi) in experiment [3] amounted to 4.8.

Consider `C[C@]12CCC(=O)C=C1CC[C@@H]1[C@@H]2[C@@H](O)C[C@]2(C=O)[C@@H](C(=O)CO)CC[C@@H]12`, for which the Log K in experiment [5] came to 6.28.

In [12], `COC(=O)C1OC(CO)C(O)C(O)C1O` (centres undefined) had a Log K of 5.76. In experiment [3], this molecule came in with a pKi of 2.55.

`CC(=O)[C@H]1CC[C@H]2[C@@H]3CCC4=CC(=O)CC[C@]4(C)[C@H]3C(=O)C[C@]12C` came in with a Log K in [1] of 6.78.

Consider `N#CC[C@@H]1O[C@H](CO)[C@@H](O)[C@H](O)[C@H]1O`, for which the Log K in experiment [13] was found to be 5.61. In experiment [3], this molecule had a pKi of 2.05.

With `C[C@]12CC[C@@H]3c4ccc(O)cc4CC[C@H]3[C@@H]1CC[C@@H]2O`, the Log K in experiment [1] was found to be 5.

Turning to `CC(=O)[C@@]1(O)[C@H](O)C[C@H]2[C@@H]3CC=C4CC(=O)CC[C@]4(C)[C@H]3CC[C@@]21C`, the Log K in experiment [1] was determined as 6.14.

`C[C@]12CC[C@H]3[C@@H](CCC4=CC(=O)CC[C@@]43C)[C@@H]1CC[C@@H]2O` came in with a Log K in experiment [1] of 6.72.
